Data published in patent publication US4652573A, “Calcium antagonist N-hetero ester 1,4-dihydropyridines” (Nelson Research & Development Co., priority 1985, dated 1987).

Assays:
[1] = test system: spontaneous hypertensive rats (SHR); experiment: Hypotensive Activity: systolic arterial blood pressure, indirect tail cuff method, oral administration; format: in vivo, rat; conditions: oral 10 m mol/Kg in polyethylene glycol, positive = fall; for Mean Change in Blood Pressure (Pressure before Administration minus pressure after Administration mm Hg) 10 min: 10 min after administration; for Mean Change in Blood Pressure (Pressure before Administration minus pressure after Administration mm Hg) 20 min: 20 min after administration; for Mean Change in Blood Pressure (Pressure before Administration minus pressure after Administration mm Hg) 30 min: 30 min after administration; for Mean Change in Blood Pressure (Pressure before Administration minus pressure after Administration mm Hg) 60 min: 60 min after administration; for Mean Change in Blood Pressure (Pressure before Administration minus pressure after Administration mm Hg) 90 min: 90 min after administration; for Mean Change in Blood Pressure (Pressure before Administration minus pressure after Administration mm Hg) 120 min: 120 min after administration
Method: Systolic arterial blood pressure was measured with the indirect tail cuff method in spontaneous hypertensive rats (SHR). The change in baseline pressure (170-210 mm Hg) was recorded at various time points following oral administration of 10 m mol/Kg of the test compound in polyethylene glycol.

[2] = target: T1, DHP Site of the Calcium Channel (Oryctolagus cuniculus, UniProt P07293); experiment: Binding Assay for Drugs Acting at the DHP Site of the Calcium Channel (3H-nitrendipine displacement, washed rabbit skeletal muscle membranes); conditions: read-out: KI (moles)
T1 construct: Washed rabbit skeletal muscle membranes; from tissue; host or cells: rabbit skeletal muscle, washed membranes (fraction 2-8×)
T1 sequence (P07293 whole entry): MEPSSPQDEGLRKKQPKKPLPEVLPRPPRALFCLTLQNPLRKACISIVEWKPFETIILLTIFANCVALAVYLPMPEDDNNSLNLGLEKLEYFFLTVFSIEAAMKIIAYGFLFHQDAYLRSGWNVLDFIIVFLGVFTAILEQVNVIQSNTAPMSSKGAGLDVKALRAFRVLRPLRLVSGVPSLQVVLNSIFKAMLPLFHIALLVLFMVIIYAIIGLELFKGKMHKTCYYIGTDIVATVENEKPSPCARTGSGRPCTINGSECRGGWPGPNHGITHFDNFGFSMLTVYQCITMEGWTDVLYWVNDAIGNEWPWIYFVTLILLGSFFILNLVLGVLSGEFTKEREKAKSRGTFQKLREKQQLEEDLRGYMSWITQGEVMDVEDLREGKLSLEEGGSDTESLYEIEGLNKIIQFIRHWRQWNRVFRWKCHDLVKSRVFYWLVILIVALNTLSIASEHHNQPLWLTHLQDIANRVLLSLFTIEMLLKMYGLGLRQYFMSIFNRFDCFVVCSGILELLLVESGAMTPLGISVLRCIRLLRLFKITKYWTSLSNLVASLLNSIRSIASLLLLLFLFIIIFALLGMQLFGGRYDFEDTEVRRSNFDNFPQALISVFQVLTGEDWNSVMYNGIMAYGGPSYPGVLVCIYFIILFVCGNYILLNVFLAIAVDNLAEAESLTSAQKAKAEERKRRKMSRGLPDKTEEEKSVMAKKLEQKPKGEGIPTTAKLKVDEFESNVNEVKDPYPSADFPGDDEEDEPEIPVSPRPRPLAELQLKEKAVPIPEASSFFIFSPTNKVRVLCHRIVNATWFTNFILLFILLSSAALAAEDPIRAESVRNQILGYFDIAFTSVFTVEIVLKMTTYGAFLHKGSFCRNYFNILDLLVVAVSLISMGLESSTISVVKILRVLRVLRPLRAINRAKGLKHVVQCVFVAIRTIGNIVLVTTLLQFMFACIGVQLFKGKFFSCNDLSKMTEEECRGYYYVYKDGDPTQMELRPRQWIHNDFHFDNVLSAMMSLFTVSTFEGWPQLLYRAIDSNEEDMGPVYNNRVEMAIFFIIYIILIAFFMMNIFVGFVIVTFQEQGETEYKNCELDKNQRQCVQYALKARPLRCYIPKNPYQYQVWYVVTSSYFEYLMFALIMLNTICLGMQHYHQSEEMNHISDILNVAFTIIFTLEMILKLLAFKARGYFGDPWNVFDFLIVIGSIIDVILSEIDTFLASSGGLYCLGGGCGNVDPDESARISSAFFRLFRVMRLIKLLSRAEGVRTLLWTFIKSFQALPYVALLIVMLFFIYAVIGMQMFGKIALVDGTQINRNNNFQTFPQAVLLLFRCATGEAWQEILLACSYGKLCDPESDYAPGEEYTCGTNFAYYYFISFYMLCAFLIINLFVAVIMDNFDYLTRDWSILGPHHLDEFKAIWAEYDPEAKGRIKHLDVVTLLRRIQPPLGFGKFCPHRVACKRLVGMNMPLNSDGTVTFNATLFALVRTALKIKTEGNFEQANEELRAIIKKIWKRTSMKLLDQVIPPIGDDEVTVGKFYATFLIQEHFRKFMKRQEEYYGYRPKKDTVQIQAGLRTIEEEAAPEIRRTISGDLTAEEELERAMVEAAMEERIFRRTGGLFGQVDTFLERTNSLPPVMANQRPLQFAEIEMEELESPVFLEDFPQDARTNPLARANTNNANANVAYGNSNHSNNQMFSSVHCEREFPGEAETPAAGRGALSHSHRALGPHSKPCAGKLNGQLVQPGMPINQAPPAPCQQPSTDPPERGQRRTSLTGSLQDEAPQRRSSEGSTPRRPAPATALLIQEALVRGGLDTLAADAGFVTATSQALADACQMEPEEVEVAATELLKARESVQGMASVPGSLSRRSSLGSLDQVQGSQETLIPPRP
Method: A. Binding Assay for Drugs Acting at the DHP Site of the Calcium Channel.
The assay was carried out as described by Fairhurst et al., Life Sciences, 32, 1331 (1983). Washed rabbit skeletal muscle membranes (fraction 2-8×) were incubated for 30 minutes at 25° C. in 2 ml final volume of medium containing 12.5 mM HEPES buffer pH 7.4 and 0.5×10^-9 M ^3 H-nitrendipine having a specific activity of approximately 17 Ci/m mol.
The incubation tubes were rapidly chilled in ice and the contents filtered through Whatman GF/B filters on a Millipore manifold, and the filters washed with 2×10 ml ice-cold HEPES buffer. The filters were placed in scintillation counting vials with 8 ml of Cytoscint cocktail, disrupted mechanically by shaking for 30 minutes and counted.
Drugs which interact at the DHP site will reduce this specific binding in a dose-dependent manner. The assays for the compounds of this invention were made with logarithmically spaced concentrations, the data were plotted on a probit-concentration plot, and the IC50 read off. The KI of the drug was calculated by standard techniques.

Row | Compound | Ki [2] | Mean Change in Blood Pressure (Pressure before Administration minus pressure after Administration mm Hg) 10 min [1] | Mean Change in Blood Pressure (Pressure before Administration minus pressure after Administration mm Hg) 20 min [1] | Mean Change in Blood Pressure (Pressure before Administration minus pressure after Administration mm Hg) 30 min [1] | Mean Change in Blood Pressure (Pressure before Administration minus pressure after Administration mm Hg) 60 min [1] | Mean Change in Blood Pressure (Pressure before Administration minus pressure after Administration mm Hg) 90 min [1] | Mean Change in Blood Pressure (Pressure before Administration minus pressure after Administration mm Hg) 120 min [1]
1 | COC(=O)C1=C(C)NC(C)=C(C(=O)OCCN2Cc3ccccc3C2=O)C1c1cccc([N+](=O)[O-])c1 (stereo not drawn) [Example 7, 2,6-Dimethyl-3-(2-phthalimidinocarbethoxy)-4-(3-nitrophenyl)-5-carbomethoxy-1,4-dihydropyridine] | 20 nM | 14 mm Hg | 19 mm Hg | 10 mm Hg | 10 mm Hg | 20 mm Hg | 19 mm Hg
2 | COC(=O)C1=C(C)NC(C)=C(C(=O)OC)C1c1ccccc1[N+](=O)[O-] [Nifedipine, nifedipine, reference compound] | – | 37 mm Hg | 36 mm Hg | 20 mm Hg | 15 mm Hg | 4 mm Hg | 4 mm Hg
3 | COC(=O)C1=C(C)NC(C)=C(C(=O)OCCN2CCCC2=O)C1c1cccc([N+](=O)[O-])c1 (stereo not drawn) [Example 10, 2,6-Dimethyl-3-[2-(2-oxopyrrolidino)carbethoxy]-4-(3-nitrophenyl)-5-carbomethoxy-1,4-dihydropyridine] | 270 nM | -17 mm Hg | -5 mm Hg | 11 mm Hg | 7 mm Hg | 6 mm Hg | 7 mm Hg
4 | COC(=O)C1=C(C)NC(C)=C(C(=O)OCCN2C(=O)CCC2=O)C1c1cccc([N+](=O)[O-])c1 (stereo not drawn) [Example 9, 2,6-Dimethyl-3-(2-succimimidocarbethoxy)-4-(3-nitrophenyl)-5-carbomethoxy-1,4-dihydropyridine] | 150 nM | 36 mm Hg | 10 mm Hg | 5 mm Hg | 3 mm Hg | 19 mm Hg | 11 mm Hg
5 | COC(=O)C1=C(C)NC(C)=C(C(=O)OCCN2C(=O)c3ccccc3C2=O)C1c1cccc(C(F)(F)F)c1 (stereo not drawn) [Example 3, 2-6-dimethyl-3-(2-phthalimidocarbethoxy)-4-(3-trifluoromethylphenyl)-5-carbomethoxy-1,4-dihydropyridine] | 48 nM | – | – | – | – | – | –

The remaining molecules from weak to strong by Ki [2], led by results:

Row | Ki [2] | Compound | Mean Change in Blood Pressure (Pressure before Administration minus pressure after Administration mm Hg) 10 min [1] | Mean Change in Blood Pressure (Pressure before Administration minus pressure after Administration mm Hg) 20 min [1] | Mean Change in Blood Pressure (Pressure before Administration minus pressure after Administration mm Hg) 30 min [1] | Mean Change in Blood Pressure (Pressure before Administration minus pressure after Administration mm Hg) 60 min [1] | Mean Change in Blood Pressure (Pressure before Administration minus pressure after Administration mm Hg) 90 min [1] | Mean Change in Blood Pressure (Pressure before Administration minus pressure after Administration mm Hg) 120 min [1]
6 | 19.7 nM | COC(=O)C1=C(C)NC(C)=C(C(=O)OCCN2C(=O)c3ccccc3C2=O)C1c1cccc(C)c1 (stereo not drawn) [Example 1, 2,6-dimethyl-3-(2-phthalimidocarbethoxy)-4-(3-methylphenyl)-5-carbomethoxy-1,4-dihydropyridine] | 17 mm Hg | 10 mm Hg | 4 mm Hg | -2 mm Hg | 5 mm Hg | -4 mm Hg
7 | 4.8 nM | COC(=O)C1=C(C)NC(C)=C(C(=O)OCCCN2C(=O)c3ccccc3C2=O)C1c1cccc([N+](=O)[O-])c1 (stereo not drawn) [Example 5] | -5 mm Hg | -14 mm Hg | -10 mm Hg | -6 mm Hg | -6 mm Hg | -5 mm Hg
8 | 3.5 nM | COC(=O)C1=C(C)NC(C)=C(C(=O)OCCN2Cc3ccccc3C2)C1c1cccc([N+](=O)[O-])c1 (stereo not drawn) [Example 8, 2,6-Dimethyl-3-(2-isoindolinylcarbethoxy)-4-(3-nitrophenyl)-5-carbomethoxy-1,4-dihydropyridine] | 36 mm Hg | 30 mm Hg | 32 mm Hg | 16 mm Hg | 4 mm Hg | 2 mm Hg
9 | 2.5 nM | CC1=C(C(=O)OCCn2c(C)ccc2C)C(c2cccc([N+](=O)[O-])c2)C(C(=O)OCCn2c(C)ccc2C)=C(C)N1 [Example 12, 2,6-Dimethyl-3,5-(2,5-dimethylpyrrolylcarbethoxy)-4-(3-nitrophenyl)-1,4-dihydropyridine] | – | – | – | – | – | –
10 | 2.5 nM | CC1=C(C(=O)OCCN2C(=O)c3ccccc3C2=O)C(c2cccc([N+](=O)[O-])c2)C(C(=O)OCCN2C(=O)c3ccccc3C2=O)=C(C)N1 [Example 4, 2,6-dimethyl-3,5-di(2-phthalimidocarbethoxy)-4-(3-nitrophenyl)-1,4-dihydropyridine] | 9 mm Hg | 8 mm Hg | 14 mm Hg | 11 mm Hg | 14 mm Hg | 10 mm Hg
11 | 1.9 nM | COC(=O)C1=C(C)NC(C)=C(C(=O)OCCCCCCN2C(=O)c3ccccc3C2=O)C1c1cccc([N+](=O)[O-])c1 (stereo not drawn) [Example 6, 2,6-Dimethyl-3-(6-phthalimidocarbohexoxy)-4-(3-nitrophenyl)-5-carbomethoxy-1,4-dihydropyridine] | 18 mm Hg | 10 mm Hg | 12 mm Hg | 14 mm Hg | 2 mm Hg | 0 mm Hg
12 | 1.1 nM | COC(=O)C1=C(C)NC(C)=C(C(=O)OCCN(C)Cc2ccccc2)C1c1cccc([N+](=O)[O-])c1 (stereo not drawn) [Nicardipine, nicardipine, reference compound] | – | – | – | – | – | –
13 | 0.7 nM | COC(=O)C1=C(C)NC(C)=C(C(=O)OCCN2C(=O)c3ccccc3C2=O)C1c1cccc([N+](=O)[O-])c1 (stereo not drawn) [Example 2, 2,6-dimethyl-3-(2-phthalimidocarbethoxy)-4-(3-nitrophenyl)-5-carbomethoxy-1,4-dihydropyridine] | 9 mm Hg | 10 mm Hg | 10 mm Hg | 6 mm Hg | 0 mm Hg | 0 mm Hg
